The target of series [1] is T1, X-prolyl dipeptidyl-aminopeptidase in human serum (Homo sapiens, UniProt P27487).
T1 construct: Even if crude enzyme such as human serum is used as enzyme source, the activity is accurately measured; from tissue; host or cells: human serum (normal subjects and patients)
As to the kind of experiment: Hydrolysis of phenylazo substrates by human serum, photometry at 493 nm / 532 nm. It counts as biochemical. As for the experimental part:
3 mM of substrate solutions were prepared as in Example 22, glycyl-L-proline p-phenylazoanilide tosylate and glycyl-L-proline 4-phenylazo-1-naphthylamide being used as substrates.
The assay of enzyme activity was carried out by adding 0.05 ml of human serum to a mixture of 0.5 ml […] glycine-NaOH buffer (pH 8.7) and 0.5 ml substrate solution in the experimental tube, incubating the resulting solution at 37° C. for 30 minutes, and then stopping the reaction with 3.0 ml 1N-hydrochloric acid. The absorbances were A 493 nm=0.18 for glycyl-L-proline p-phenylazoanilide and A 532 nm=0.80 for glycyl-L-proline 4-phenylazo-1-naphthylamide.
The rate of hydrolysis of glycyl-L-proline p-phenylazoanilide was measured as in Example 26, human serum being used as enzyme. However, the blank tube contained water instead of the enzyme solution in the experimental tube, and the standard tube contained 3 mM p-phenylazo-aniline solution instead of the enzyme solution in the experimental tube.

Series [2] relates to human serum. As to the kind of experiment: Paper chromatography of products after incubation with human serum. As to conditions: incubation 30 minutes. It is filed as biochemical. As for the experimental part: The products obtained after incubating various X-L-proline p-nitroanilides with purified human submaxillary enzyme or human serum for 30 minutes as in Example 22 were examined by paper chromatography, the residues of glycine, L-alanine, L-glutamic acid, L-aspartic acid, L-lysine and L-argine being used as the N-terminal amino acids (X).
When the rate of hydrolysis of L-proline p-nitroanilide by human serum was examined, it was observed only 0.7% of hydrolysis of glycyl-L-proline p-nitroanilide.

For series [3], the system named is purified human submaxillary enzyme (X-prolyl dipeptidyl-aminopeptidase). As to the kind of experiment: Direct photometric assay of substrate hydrolysis with purified human submaxillary enzyme. It is filed as biochemical. As for the experimental part:
(§1) 3mM substrate solutions were prepared as in Example 22, various dipeptide derivatives or salts thereof being used as substrates. The relative enzyme activities toward various substrates, and the rates and optimum pHs of hydrolysis of various substrates with the enzyme were measured as in Example 22.
^a Activities were measured in 0.15 M Trismaleate buffer at pH 5.6-8.
and in 0.15 M glycineNaOH buffer at pH 8.2-9.4, purified human
submaxillary enzyme being used. For Lalanyl-L-proline pnitroanilide,
amidiol buffer were used instead of glycine buffer, since glycine buffer
interfered the photometry at pH 9-10.
^b Km values were measured at 7.0 in Trismaleate buffer, purified
human submaxillary enzyme being used. The values are the mean of duplicat
(§2) ^c Activities were measured at pH 7.0 in 0.15 M Trismaleate buffer or
(§3) at pH 8.7 in 0.15 M glycineNaOH buffer. The values are the mean of
^d The purified enzyme was obtained by the following method; The
enzyme was solubilized from the microsomal fraction by autodigestion, and
subsequently purified by (NH4)2 SO4 fractionation followed
by Sephadex G200 chromatography.

Series [4] is described as follows: Stability of aqueous substrate solution. It counts as physicochemical. As to conditions: at the optimum pH, 4° C. As for the experimental part:
The enzyme activity is measured without difficulty by using the dipeptide derivatives or salts thereof as substrates. An aqueous solution of X-L-proline-Y or salt thereof having a suitable concentration is first prepared. Since it requires a fairly long time to dissolve the substrate in water, it is preferred to use suitable substances capable of increasing the dissolution rate such as non-ionic detergents, acids and alcohols, or to use the substrate in the porous form which may be prepared by freeze-drying or the like. The porous substrate is most convenient for routine use for assay of the enzyme. The optimum pH of the substrate solution varies depending on the kind of substrate employed, but is easily determined by experiments. The optimum pH is usually in the range of from 6 to 9, preferably of from 7.5 to 8.9.

For series [5], the target named is T1, X-prolyl dipeptidyl-aminopeptidase in human serum. As to the kind of experiment: Direct photometric assay of substrate hydrolysis (p-nitroaniline liberated, 385 nm) with human serum as enzyme source. It is filed as biochemical. As to conditions: for Enzyme activity (μmole/min/1 serum ± S.E.): 3 cases; for Amount of p-nitroaniline formed: 37° C., pH 8.7, 0.05 ml human serum; for Enzyme activity average ± S. E.: normal human sera. The procedure: The relation between the incubation time and the amount of substrate hydrolyzed was examined, glycyl-L-proline p-nitroanilide and human serum being used as substrate and enzyme source, respectively, and the assay of the substrate hydrolyzed was carried out by the following direct photometric method.
Glycyl-L-proline p-nitroanilide tosylate was dissolved in 2% non-ionic detergent (Nikkol NP-10; Nikko Chemicals, Osaka, Japan) aqueous solution in a concentration of 3 mM to prepare the substrate solution. The following four tubes were prepared:
(1) the experimental tube contained 0.5 ml of 0.15 M glycine-NaOH buffer (pH 8.7), 0.5 ml of the substrate solution, and 0.05 ml of human serum
(2) the blank tube contained 0.5 ml of the 0.15 M glycine-NaOH buffer, 0.5 ml of the substrate solution and 0.05 ml of water.
(3) the standard tube contained 0.5 ml of the buffer, 0.5 ml of the substrate and 0.05 ml of 3 mM p-nitroaniline aqueous solution.
(4) the control tube contained 0.5 ml of the buffer and 0.5 ml of the substrate.
All tubes were incubated at 37° C. for the periods listed in Table 1, and the reaction was stopped by the addition of 3.0 ml of 1M acetate buffer (pH 4.2) to every tube. To the control tube, 0.05 ml of the human serum was added after stopping the reaction. A photometer was adjusted to zero with the blank, and the absorbances of the experimental (E), control (C), and standard (S) were read at 385 nm in a cuvette with 1 cm light path. p-Nitroaniline liberated by the enzyme reaction was calculated by the equation [formula]
as §1, §2, §3
The activity of X-prolyl dipeptidyl-aminopeptidase was measured as in Example 22, glycyl-L-proline p-nitroanilide and 88 normal human sera being used as substrate and enzyme, respectively.
The activity of X-prolyl dipeptidyl-aminopeptidase was measured as in Example 22, glycyl-L-proline p-nitroanilide and human sera from patients being used as substrate and enzyme sources, respectively.
The activity of X-prolyl dipeptidyl-aminopeptidase was measured as in Example 22, various X-L-prolyl p-nitroanilides, and human sera from patients being used as substrates and enzyme sources, respectively.

Setting [6] is: 0.05 ml human serum, pH 8.7, 37° C., 30 minutes.

Molecules are shown by their SMILES. Peptide text beside a SMILES is read from it. * marks the point of attachment. pNA = O=[N+]([O-])c1ccc(N*)cc1

T1 sequence (P27487 39-766 limits assumed): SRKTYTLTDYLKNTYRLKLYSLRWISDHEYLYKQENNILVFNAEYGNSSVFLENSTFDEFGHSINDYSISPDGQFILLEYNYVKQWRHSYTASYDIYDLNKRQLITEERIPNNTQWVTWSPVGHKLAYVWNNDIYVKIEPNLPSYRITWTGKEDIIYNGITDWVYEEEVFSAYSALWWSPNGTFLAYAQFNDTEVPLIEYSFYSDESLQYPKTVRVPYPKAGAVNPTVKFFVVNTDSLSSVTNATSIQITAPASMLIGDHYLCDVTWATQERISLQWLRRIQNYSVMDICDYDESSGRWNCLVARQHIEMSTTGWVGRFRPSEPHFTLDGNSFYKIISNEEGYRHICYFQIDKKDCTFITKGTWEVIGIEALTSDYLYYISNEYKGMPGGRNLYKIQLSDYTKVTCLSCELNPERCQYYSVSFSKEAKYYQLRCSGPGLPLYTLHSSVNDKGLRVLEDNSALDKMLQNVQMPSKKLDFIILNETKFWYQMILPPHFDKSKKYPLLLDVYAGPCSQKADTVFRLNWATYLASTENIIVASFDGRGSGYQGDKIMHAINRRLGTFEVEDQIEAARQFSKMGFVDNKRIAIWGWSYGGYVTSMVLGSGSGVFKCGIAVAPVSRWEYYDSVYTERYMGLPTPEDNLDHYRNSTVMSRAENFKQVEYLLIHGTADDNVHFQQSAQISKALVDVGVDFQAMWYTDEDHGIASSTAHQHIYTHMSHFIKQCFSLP

As for `NCC(=O)N1CCC[C@H]1C(=O)Nc1ccc(N=Nc2ccccc2)c2ccccc12` [Glycyl-L-proline 4-phenylazo-1-naphthyl amide], the “absorbance A 532 nm” value in series [1] (setting [6]) stood at 0.80.
As to `NCC(=O)N1CCC[C@H]1C(=O)O` [Glycyl-L-proline] (H-Gly-Pro-OH), in series [2], the “products identified by paper chromatography / hydrolysis by human serum” value was “hydrolyzed to glycine and L-proline”.
Take `NCC(=O)N1CCC[C@H]1C(=O)Nc1ccc([N+](=O)[O-])cc1` [glycyl-L-proline p-nitroanilide, Glycyl-L-proline p-nitroanilide] (H-Gly-Pro-pNA): in series [3] (Tris-maleate, glycine-NaOH or amidiol buffer), the “Optimum pH” value is 8.5-8.7. Also, in series [3] (pH 7.0, 0.15 M Tris-maleate buffer, glycyl-L-proline p-nitroanilide = 100), the “Relative enzyme activity (%) Purified human submaxillary enzyme pH 7.0” value worked out at 100%. Also, in series [3] (pH 7.0, Tris-maleate buffer, mean of duplicate experiments), the Km came to 330 µM. Besides, the “storage of substrate solution without appreciable degradation” value in series [4] was “more than a week”. The “products identified by paper chromatography / hydrolysis by human serum” value in series [2] was “glycyl-L-proline, glycine, L-proline and p-nitroaniline were identified”. The Enzyme activity in series [5] (human sera from patients, Acute lymphocytic leukemia, 22 cases) stood at 38.8 ± 11.9 μmole/min/1 serum; in series [5] (human sera from patients, Early essential hypertension, 20 cases), 80.94 ± 3.87 μmole/min/1 serum; in series [5] (human sera from patients, Fixed essential hypertension, 17 cases), 89.29 ± 3.69 μmole/min/1 serum; in series [5] (human sera from patients, Gastric Cancer, 37 cases), 38.4 ± 2.3 μmole/min/1 serum; in series [5] (human sera from patients, Hepatitis, 23 cases) it was 75.8 ± 28.5 μmole/min/1 serum; in series [5] (human sera from patients, Hodgkin's disease, 15 cases), 31.0 ± 9.5 μmole/min/1 serum. The Enzyme activity in series [5] (human sera from patients, Lymphosarcoma, 11 cases) is given as 36.3 ± 5.6 μmole/min/1 serum; in series [5] (human sera from patients, Pulmonary Cancer, 17 cases), 39.8 ± 2.6 μmole/min/1 serum; in series [5] (human sera, Normal (control), 88 cases) it was 54.9 ± 1.5 μmole/min/1 serum. In addition, the “Enzyme activity (μmole/min/1 serum ± S.E.)” value in series [5] (human sera from patients, Gastric Cancer) came to 25.3 ± 3.0 μmole/min/1 serum; in series [5] (human sera from patients, Hepatitis), 143.0 ± 31.8 μmole/min/1 serum; in series [5] (human sera, Normal (control)), 50.4 ± 15.0 μmole/min/1 serum. Moreover, the “Relative enzyme activity (%) Human serum pH 7.0” value in series [5] (human serum, pH 7.0, 0.15 M Tris-maleate buffer, glycyl-L-proline p-nitroanilide = 100) is given as 100%. In addition, in series [5] (human serum, pH 8.7, 0.15 M glycine-NaOH buffer, glycyl-L-proline p-nitroanilide = 100), the “Relative enzyme activity (%) Human serum pH 8.7” value came out at 100%. For the same molecule, the “Amount of p-nitroaniline formed” value in series [5] (incubation time 15 min) was 18.11 n mole; in series [5] (incubation time 30 min), 35.43 n mole; in series [5] (incubation time 60 min), 71.65 n mole; in series [5] (incubation time 90 min) it was 100.79 n mole; in series [5] (incubation time 120 min), 135.43 n mole. For the same molecule, the “Enzyme activity average ± S. E.” value in series [5] (Older Female, 17 subjects, 48-76 years) is listed as 58.16 ± 4.37 μ mole/min/1 serum; in series [5] (Older Male, 29 subjects, 41-81 years) it was 53.18 ± 2.43 μ mole/min/1 serum; in series [5] (Older, 46 subjects, 41-81 years), 55.04 ± 2.23 μ mole/min/1 serum; in series [5] (Total Female, 35 subjects, 20-76 years), 52.49 ± 2.47 μ mole/min/1 serum; in series [5] (Total Male, 53 subjects, 15-81 years), 56.30 ± 1.90 μ mole/min/1 serum; in series [5] (Total, 88 subjects, 15-81 years) it was 54.88 ± 1.50 μ mole/min/1 serum. In addition, the “Enzyme activity average ± S. E.” value in series [5] (Younger Female, 18 subjects, 20-40 years) worked out at 47.59 ± 2.07 μ mole/min/1 serum; in series [5] (Younger Male, 24 subjects, 15-40 years), 60.10 ± 2.84 μ mole/min/1 serum; in series [5] (Younger, 42 subjects, 15-40 years), 54.76 ± 2.07 μ mole/min/1 serum.
In the case of `Cc1ccc(S(=O)(=O)O)cc1.NCC(=O)N1CCC[C@H]1C(=O)Nc1ccc(N=Nc2ccccc2)cc1` [glycyl-L-proline p-phenylazoanilide, Glycyl-L-proline p-phenylazoanilide tosylate], the “absorbance A 493 nm” value in series [1] (setting [6]) worked out at 0.18. This molecule also showed a rate of hydrolysis in series [1] (human serum as enzyme, as in Example 26) of 18.7 n mole/min./l serum.
